The values that follow come from US20090042835A1, “COMPOSITIONS AND METHODS FOR AMELIORATING HYPERLIPIDEMIA” (priority 2006, published 2009).

The Kd is the concentration at which binding is half-saturated.

The target in experiment [1] is T1, L-FABP (Homo sapiens, UniProt P07148).
T1 sequence (P07148 1-127): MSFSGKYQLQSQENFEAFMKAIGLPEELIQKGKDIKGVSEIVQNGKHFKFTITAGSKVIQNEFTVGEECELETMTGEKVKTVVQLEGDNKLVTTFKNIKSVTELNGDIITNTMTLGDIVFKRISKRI
The experiment can be described thus: 1,8-ANS binding to FABP (direct binding isotherms). From the text:
The pharmaceutical compound may be formulated using any small molecule that is capable of inhibiting L-FABP and which is pharmaceutically acceptable. One non-limiting example of a suitable L-FABP inhibitor is 3-(decyldimethylsilyl)-N-[2-(4-methylphenyl)-1-phenylethyl]propanamide (Sandoz compound 58-035) (lot #fr. 09061988), In some embodiments, such L-FABP inhibitors are identified using a screening assay. […] Suitable in vitro assays for testing L-FABP include, but are not limited to a high throughput L-FABP assay based on the 1,8-ANS binding assay (see: Kane, C. D., and Bernlohr, D. A. 1996, A simple assay for intracellular lipid-binding proteins using displacement of 1-anilinonaphthalene 8-sulfonic acid. Anal Biochem 233:197-204.) In this assay, recombinant L-FABP is incubated with a fluorescent surrogate ligand, 1-anilinonapthalene 8-sulfonic acid (ANS) and allowed to come to equilibrium. 1,8-ANS is non-fluorescent in solution but is highly fluorescent when bound in the hydrophobic, lipid-binding pocket of the fatty acid binding proteins. […] Chemical compounds in pools of 5 were added to each well and the fluorescence re-measured. […] In tertiary screens, the primary targets will be titrated into the FABP bound with 1,8-ANS and the displacement quantitated as a function of ligand concentration.

Another experiment deals with PPARα−/− mice. The experiment can be described thus: PPARα agonist GW-7647 feeding, hepatic mRNA, PPARα−/− mice. In kind it is in vivo. Conditions: 2.5 mg/kg/d in chow, 7 weeks. The protocol:
(§1) Animal Studies. Male PPARα−/− mice and age matched WT littermates (on SV/129 background) were fed a standard chow diet, supplemented with either the PPARα agonist GW-7647 (2.5 mg/kg/d) or equivalent amount of solvent vehicle (DMSO), for 7 weeks. All animals had ad libitum access to water. Mice were weighed every 2 weeks and drug intake was adjusted according to mean weight. Upon end of treatment animals were sacrificed, liver was isolated, and total RNA was extracted using Versagene RNA Tissue Kit (Gentra Systems, Inc.). First-Strand cDNA synthesis and Real Time PCR expression analyses were performed as described above.

A further experiment relates to control mice. The experiment can be described thus: PPARα agonist GW-7647 feeding, hepatic mRNA, control mice. In kind it is in vivo. Particulars: 2.5 mg/kg/d in chow, 7 weeks. The protocol:
as §1

Experiment [2] addresses T1, L-FABP. Conditions: cited from earlier work.
The target of another experiment is T2, PPARα (rat, UniProt P37230 1-468).
T2 construct: Nuclear receptor; It was present in a crude nuclear extract, not purified; also called PPAR alpha
T2 sequence (looked up): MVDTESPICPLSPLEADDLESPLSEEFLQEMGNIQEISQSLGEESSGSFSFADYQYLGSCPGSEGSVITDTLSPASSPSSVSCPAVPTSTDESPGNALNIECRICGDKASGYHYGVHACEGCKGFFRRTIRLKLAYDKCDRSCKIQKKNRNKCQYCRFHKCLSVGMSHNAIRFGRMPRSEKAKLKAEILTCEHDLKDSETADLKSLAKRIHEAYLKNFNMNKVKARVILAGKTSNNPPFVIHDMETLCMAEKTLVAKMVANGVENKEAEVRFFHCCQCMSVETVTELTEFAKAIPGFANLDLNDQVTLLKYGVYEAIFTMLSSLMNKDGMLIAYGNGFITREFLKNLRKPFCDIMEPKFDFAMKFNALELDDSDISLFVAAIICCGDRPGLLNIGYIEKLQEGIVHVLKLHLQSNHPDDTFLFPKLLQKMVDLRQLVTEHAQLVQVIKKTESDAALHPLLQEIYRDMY
The experiment can be described thus: inferred from EMSA supershift of the same FAO-specific DNA-protein complex with anti-RXRα and anti-PPARα antibodies. The protocol: The probes were prepared by annealing the complementary oligonucleotides and by end labeling with [γ-³²P]ATP ([…]), PerkinElmer Life Sciences) using T4 polynucleotide kinase (New England Biolabs), followed by purification on a G50 column. For binding reactions, 15 μg of nuclear extracts were incubated with 3×10^4 cpm probe on ice for 20 min in a total volume of 15 μl of solution (20 mM HEPES, pH7.9 at 4° C., 10% glycerol, 100 mM KCl, 1 mM EDTA, and 2 μg poly(dI-dC). For supershift experiments, 1 μl of specific antibodies were added to preincubated DNA-protein complexes for an additional 20 min on ice. Antibodies against COUP-TFII (sc-6576X), RXRα (sc-553X), and PPARα (sc-9000X) were obtained from Santa Cruz Biotechnology, Inc. DNA-protein complexes were resolved on 4% native polyacrylamide gel electrophoresis containing 0.5×TBE buffer.
PPARα-RXRα heterodimers compete with COUP-TFII for binding to the DR1 promoter elements of both the MTP and L-FABP genes. […] In contrast, PPARα-RXRα supershifts were not detected with the nuclear extracts obtained from L35 cells ((4)). These Findings indicate that in FAO cells, the DR1 sites of both the L-FABP and MTP promoters are occupied by PPARα-RXRα heterodimers while these same sites are occupied by a COUP-TFII complex in L35 cells.
Background: A gel shift assay detects complexes by their altered migration in electrophoresis.

On to `O=S(=O)(O)c1cccc2cccc(Nc3ccccc3)c12` [1,8-ANS, 1-anilinonapthalene 8-sulfonic acid], for which the affinity on L-FABP [1], expressed as Kd, was 1500 nM. Consider `CC(C)(Sc1ccc(CCN(CCCCC2CCCCC2)C(=O)NC2CCCCC2)cc1)C(=O)O` [GW-7647], for which, in the experiment with PPARα−/− mice, the “hepatic L-FABP expression level” value is on record as “no significant changes” and the “hepatic MTP expression level” value was “no significant changes”. For the same molecule, in the experiment with control mice, the “hepatic L-FABP mRNA level” value was “increased levels” and the “hepatic MTP mRNA level” value is “increased levels”. On to `CCCCCCCCCC[Si](C)(C)CCC(=O)NC(Cc1ccc(C)cc1)c1ccccc1` (stereo not shown) [Sandoz compound 58-035, 3-(decyldimethylsilyl)-N-[2-(4-methylphenyl)-1-phenylethyl]propanamide], for which the “inhibition of L-FABP” value on L-FABP [2] is reported as “inhibit L-FABP”.

B1: RXRα (receptor, rat, UniProt Q05343 1-467, looked up)
chain: MDTKHFLPLDFSTQVNSSSLSSPTGRGSMAAPSLHPSLGPGLGSPLGSPGQLHSPISTLSSPINGMGPPFSVISSPMGPHSMSVPTTPTLGFETGSPQLNSPMNPVSSSEDIKPPLGLNGVLKVPAHPSGNMSSFTKHICAICGDRSSGKHYGVYSCEGCKGFFKRTVRKDLTYTCRDNKDCLIDKRQRNRCQYCRYQKCLAMGMKREAVQEERQRGKDRNENEVESTSSANEDMPVEKILEAELAVEPKTETYVEANMGLNPSSPNDPVTNICQAADKQLFTLVEWAKRIPHFSELPLDDQVILLRAGWNELLIASFSHRSIAVKDGILLATGLHVHRNSAHSAGVGAIFDRVLTELVSKMRDMQMDKTELGCLRAIVLFNPDSKGLSNPAEVEALREKVYASLEAYCKHKYPEQPGRFAKLLLRLPALRSIGLKCLEHLFFFKLIGDTPIDTFLMEMLEAPHQTT
notes: Nuclear receptor; It was present in a crude nuclear extract, not purified; also called RXR alpha
Take B1: the binding result with PPARα is reported as “binds”.
